According to PMC8709172, “High-Throughput Screening Campaign Identified a Potential Small Molecule RXFP3/4 Agonist” (Molecules, 2021):
Where two headings read alike, the source gives them in different places.

Key:
human RXFP3 (hRXFP3) [1] = molecular target: T1, human RXFP3 (hRXFP3) (Homo sapiens, UniProt Q9NSD7); test: cell-based; parameters: TR-FRET inhibition of forskolin-stimulated cAMP accumulation, single-dose primary screen, percent of R3/I5 control; settings: CHO; primary screen, relative to 5 nM R3/I5; read-out: % activation
T1 sequence (Q9NSD7 1-469): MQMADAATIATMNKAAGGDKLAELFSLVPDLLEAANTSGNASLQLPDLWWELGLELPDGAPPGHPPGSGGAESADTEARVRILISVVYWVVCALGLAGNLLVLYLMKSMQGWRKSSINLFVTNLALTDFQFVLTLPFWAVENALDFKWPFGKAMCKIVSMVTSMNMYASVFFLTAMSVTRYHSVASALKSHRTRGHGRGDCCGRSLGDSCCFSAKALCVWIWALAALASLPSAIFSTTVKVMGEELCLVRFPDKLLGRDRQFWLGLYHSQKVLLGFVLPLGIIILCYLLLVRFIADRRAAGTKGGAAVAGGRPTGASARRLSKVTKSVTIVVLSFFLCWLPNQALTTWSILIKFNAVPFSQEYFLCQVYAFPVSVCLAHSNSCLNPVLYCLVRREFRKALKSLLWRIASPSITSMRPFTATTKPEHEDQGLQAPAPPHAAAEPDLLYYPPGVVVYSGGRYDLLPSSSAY
Protocol: The HTS campaign was carried out in white 384-well plates by measuring the inhibition of forskolin-stimulated cAMP accumulation in hRXFP3-CHO cells. Briefly, the positive control (5 nM R3/I5) and negative control (1% DMSO) were located at the 64 wells of the outer four columns on both sides with 32 replicates, respectively. The individual screening compounds were loaded at the center twenty columns with an average final concentration of 10 μM in a single-dose format without replicates. Time-resolved fluorescence resonance energy transfer (TR-FRET) signals were read by an EnVision multilabel plate reader (PerkinElmer). Z’ factor, coefficient of variation (CV) and signal-to-background ratio (S/B) were calculated according to the literature. Positive control was regarded as 100% activation, while negative control represented no activation. Compounds showing greater than 50% activation were considered hits, and secondary screening using the same assay was performed to eliminate false positives. cAMP accumulation assay was performed in hRXFP3-CHO cells at a density of 5 × 10^5 cells/mL. […] Plates were incubated at RT for 60 min and the fluorescence intensity measured at 620 nm and 665 nm by an EnVision multilabel plate reader. […]

human RXFP3 (hRXFP3) [2] = molecular target: T1, human RXFP3 (hRXFP3); test: cAMP accumulation TR-FRET in hRXFP3-CHO cells; assay type: cell-based
human RXFP3 (hRXFP3) [3] = molecular target: T1, human RXFP3 (hRXFP3); test: cell-based; parameters: species or system CHO-K1; Europium-labelled H3 B1-22R competition binding on CHO-K1 cells stably expressing RXFP3; settings: vs 5 nM Eu-H3 B1-22R
Protocol: CHO-K1 cells stably transfected with RXFP3 were plated onto pre-coated poly-L-lysine 96-well plates for the binding assay performed using 5 nM europium (Eu)-H3 B1-22R as previously described with triplicate determinations within assay and a minimum of three independent experiments. Data are presented as means ± SEM. pKi values were calculated using one-site fit Ki and a Kd value of 26 nM for H3 B1-22R [47].

human RXFP3 (hRXFP3) [4] = molecular target: T1, human RXFP3 (hRXFP3); test: competition binding with europium-labelled H3 B1-22R on RXFP3 CHO-K1 cells; assay type: cell-based; settings: 5 nM Eu-H3 B1-22R, one-site fit Ki, tracer Kd 26 nM; competitive
human RXFP4 (hRXFP4) = human RXFP4 (hRXFP4) (Homo sapiens, UniProt Q8TDU9); test: cAMP accumulation TR-FRET in hRXFP4-CHO cells; assay type: cell-based
human RXFP3 (hRXFP3) [5] = molecular target: T1, human RXFP3 (hRXFP3); test: cell-based; parameters: HTS inhibition of forskolin-stimulated cAMP, TR-FRET; % activation relative to R3/I5; settings: hRXFP3-CHO; primary screen, single dose; read-out: % activation
Protocol: The HTS campaign was carried out in white 384-well plates by measuring the inhibition of forskolin-stimulated cAMP accumulation in hRXFP3-CHO cells. Briefly, the positive control (5 nM R3/I5) and negative control (1% DMSO) were located at the 64 wells of the outer four columns on both sides with 32 replicates, respectively. The individual screening compounds were loaded at the center twenty columns with an average final concentration of 10 μM in a single-dose format without replicates. Time-resolved fluorescence resonance energy transfer (TR-FRET) signals were read by an EnVision multilabel plate reader (PerkinElmer). Z’ factor, coefficient of variation (CV) and signal-to-background ratio (S/B) were calculated according to the literature. Positive control was regarded as 100% activation, while negative control represented no activation. Compounds showing greater than 50% activation were considered hits, and secondary screening using the same assay was performed to eliminate false positives. cAMP accumulation assay was performed in hRXFP3-CHO cells at a density of 5 × 10^5 cells/mL. The cells were treated with different concentrations of compounds plus 25 μM forskolin and 500 μM IBMX for 30 min at room temperature (RT). cAMP-d2 conjugate and cryptate conjugate working solutions were then diluted and added to the plates separately. Plates were incubated at RT for 60 min and the fluorescence intensity measured at 620 nm and 665 nm by an EnVision multilabel plate reader. The parental CHO cells were applied to examine off-target effect, while hRXFP4-CHO cells were utilized for selectivity assessment.

Sequence of human RXFP4 (hRXFP4) (Q8TDU9 whole entry): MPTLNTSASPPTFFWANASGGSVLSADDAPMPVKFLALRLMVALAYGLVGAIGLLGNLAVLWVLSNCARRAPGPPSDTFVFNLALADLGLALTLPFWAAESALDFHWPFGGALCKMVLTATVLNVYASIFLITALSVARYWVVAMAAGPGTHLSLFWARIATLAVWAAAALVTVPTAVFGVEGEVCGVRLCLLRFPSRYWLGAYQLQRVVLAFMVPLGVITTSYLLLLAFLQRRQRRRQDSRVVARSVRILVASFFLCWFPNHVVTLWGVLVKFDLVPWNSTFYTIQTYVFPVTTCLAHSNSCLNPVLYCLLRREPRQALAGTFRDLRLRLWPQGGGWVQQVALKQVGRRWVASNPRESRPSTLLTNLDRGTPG

SMILES	activity at 10 µM (human RXFP3 (hRXFP3) [5]) [%]	further results
CC(C)(CCc1ccc(NS(=O)(=O)c2ccccc2)cc1)NCC(O)COc1ccc(O)c(NS(C)(=O)=O)c1 (racemic) [WNN0109-C011]	–	activity at 10 µM (human RXFP3 (hRXFP3) [1]): 85%; EC50 (human RXFP3 (hRXFP3) [2]): 2.51 µM; Ki (human RXFP3 (hRXFP3) [3]): 41.7 µM; pKi (human RXFP3 (hRXFP3) [4]): further confirmed the direct binding of WNN0109-C011 and its two enantiomers with RXFP3; EC50 (human RXFP4 (hRXFP4)): 33.9 µM
CC(C)(CCc1ccc(NS(=O)(=O)c2ccccc2)cc1)NC[C@@H](O)COc1ccc(O)c(NS(C)(=O)=O)c1 [R-WNN0109-C011]	–	Ki (human RXFP3 (hRXFP3) [3]): 31.6 µM; pKi (human RXFP3 (hRXFP3) [4]): further confirmed the direct binding of WNN0109-C011 and its two enantiomers with RXFP3
CC(C)(CCc1ccc(NS(=O)(=O)c2ccccc2)cc1)NC[C@H](O)COc1ccc(O)c(NS(C)(=O)=O)c1 [S-WNN0109-C011]	–	Ki (human RXFP3 (hRXFP3) [3]): 91.2 µM; pKi (human RXFP3 (hRXFP3) [4]): further confirmed the direct binding of WNN0109-C011 and its two enantiomers with RXFP3
O=C(O)Cn1c(=O)c(=O)[nH]c2c(Br)cc(Br)cc21 [WNN0002-F006]	73	–
Nc1ccc2sc3[nH]c(=O)c(=O)[nH]c3c2c1 [WNN0003-B006]	54	–
O=c1[nH]c2scc(C3CCCCC3)c2[nH]c1=O [WNN0003-F007]	51	–
Cc1sc2[nH]c(=O)c(=O)[nH]c2c1C [WNN0003-G011]	54	–
Cc1csc2[nH]c(=O)c(=O)n(C)c12 [WNN0004-D007]	57	–
O=C1NCCCC1C1=NC(CO)(CO)CO1 (stereo not drawn) [WNN0027-E003]	53	–

Now from value to compound, other results behind:

activity at 10 µM (human RXFP3 (hRXFP3) [5]) [%]	SMILES	further results
56	CS/C(=N/C#N)Nc1ccc2c(c1)OCCO2 [WNN0027-G008]	–
56	O=C(CCCCN1CCCCC1)c1ccccc1 [WNN0028-D009]	–
68	O=C(O)C1CCCN(CCC=C2c3ccccc3CCc3cc(-c4ccccc4)ccc32)C1 (stereo not drawn) [WNN0063-E008]	–
130	O=C(O)C1CCN(CCC=C2c3ccccc3CCc3cc(-c4ccccc4)ccc32)CC1 [WNN0063-E009]	–
82	O=c1[nH]c2ccccc2n(C(c2ccccc2)c2ccccc2)c1=O [WNN0119-H005]	–
65	O=C(c1ccccc1O)N1CCc2nc3ncccc3cc2C1 [WNN0195-H002]	–
78	CSc1nccc(-c2ccc(Br)s2)n1 [WNN0196-B004]	–
50	C[N+](C)=c1ccc2nc3ccc(N)cc3sc-2c1 [WNN0314-F004]	–
51	CN(C)c1ccc2nc3ccc(=[N+](C)C)cc-3sc2c1 [WNN0314-G003]	–
